Test results taken from publication PMC4508327 (Clinical cancer research : an official journal of the …, 2015).

What was measured:
QTc interval = format: in vivo, human
advanced solid tumors = assay: Objective tumor response; format: in vivo, human
[1] = tested on: patients with advanced solid tumors; details: human, in vivo
[2] = in vivo
[3] = preclinical; no reference given; cited from earlier work
[4] = tested on: patients with advanced solid tumors; assay: Phase I safety: adverse events

## CN(C)C1CCN(C(=O)c2ccc(NC(=O)Nc3ccc(-c4nc(N5CCOCC5)nc(N5CCOCC5)n4)cc3)cc2)CC1 [PF-05212384]
QTc interval; based on the lack of a dose-effect relationship
  association with QTc prolongation: likely not associated with QTc prolongation
QTc interval; human, in vivo
  patients with grade 1 QTc prolongation: 5%
  patients with grade 2 QTc prolongation: 5%
QTc interval; in vivo
  patients with grade 3 QTc prolongation: no patients
Advanced solid tumors; 77 treated patients
  patients with long-lasting stable disease (>6 months): Eight
Advanced solid tumors; CR, PR or SD lasting ≥6 months, overall
  clinical benefit response (CBR): 13%
Advanced solid tumors; overall study population, n = 77
  objective tumor response rate: 2.6%
Advanced solid tumors; overall study population, plus one unconfirmed PR
  partial responses (PR): two
[1]
  all-cause AE: anemia: 18.2%
  all-cause AE: asthenia: 26%
  all-cause AE: back pain: 19.5%
  all-cause AE: constipation: 23.4%
  all-cause AE: cough: 23.4%
  all-cause AE: decreased appetite: 37.7%
  all-cause AE: diarrhea: 24.7%
  all-cause AE: dyspnea: 19.5%
  all-cause AE: fatigue: 32.5%
  all-cause AE: hyperglycemia: 28.6%
  all-cause AE: increased ALT and AST: 16.9%
  all-cause AE: mucosal inflammation and stomatitis: 59.7%
  all-cause AE: nausea: 55.8%
  all-cause AE: pyrexia: 23.4%
  all-cause AE: rash: 23.4%
  all-cause AE: vomiting: 35.1%
  patients who discontinued due to treatment-related AEs: 3.9%
  treatment-related AE: decreased appetite: 24.7%
  treatment-related AE: fatigue: 24.7%
  treatment-related AE: hyperglycemia: 26%
  treatment-related AE: mucosal inflammation and stomatitis: 58.4%
  treatment-related AE: nausea: 42.9%
  treatment-related AE: vomiting: 24.7%
[1]; iv
  recommended phase 2 dose: 154 mg
[2]; human
  accumulation (accumulation ratios for Cmax): no accumulation
  interpatient variability in Cmax and AUC: low to moderate
  terminal T1/2, mean values: 33 to 41 h
[2]
  Cmax and AUC versus dose: appeared to increase proportionally with increasing dose
[3]
  effect on cardiac, central nervous system or respiratory function: did not show any significant effect
[4]; IV once weekly, estimated by modified CRM
  maximum tolerated dose (MTD): 154 mg
[4]; seven disease progression, one colon obstruction, one pneumonia
  deaths on study and within 28 days of last-dose administration: Nine
